Results: US8987486B2, “Trans-2-decenoic acid derivative and pharmaceutical agent containing the same” (Nagoya Industrial Science Research Institute, priority 2010, dated 2015)

Tests used:
PC12 cells = experiment: Evaluation using PC12 cells; immunostaining method for MAPK phosphorylation; type: cell-based; settings: 30 minutes
Experimental: PC12 cells were stimulated using the compound of the present invention and the phosphorylation of MAPK was evaluated by means of immunostaining of the cells. The specific operation procedure is as follows.
A cover glass was placed on a 24-well plate followed by coating with poly-L-lysine. PC12 cells were seeded in a cell density of 50,000 cells/well. (The amount of the medium was 400 μL) On the first day after seeding the cells, the medium was exchanged to DMEM containing 1% fetal bovine serum (FBS) and 0.06% L-glutamine.
The compound which was previously diluted with DMSO was dissolved in 100 μl of medium. After 12 to 16 hours from the medium exchange, 100 μl out of 400 μl of the medium was removed from each well and, in place of that, 100 μl of a medium containing the compound was added.
After 30 minutes from the addition, fixation was conducted using 4% paraformaldehyde (PFA) for 10 minutes. The fixed cells were washed with a Tris-buffered saline (TBS) and a TBS containing 0.3% Triton X was added thereto followed by incubating at 37° C. for 30 minutes. This was washed with a TBS and blocked with a TBS containing 3% skim milk for 30 minutes (at room temperature).
This was washed with a TBS for one time and a primary antibody (anti-phospho-p42/44 MAPK antibody; cell signalings; #9102 being diluted with TBS to an extent of 1,000-fold) was added thereto followed by subjecting to the reaction at 4° C. for one night. The primary antibody was removed and washed with a TBS for three times. After that, the secondary antibody (Alexa 488 goat anti-rabbit antibody; Invitrogen: being diluted to an extent of 1,000-fold using a TBS containing 1% Block Ace) was added thereto and the reaction was conducted at room temperature for 3 hours. The secondary antibody was removed and, after washing with a TBS, fixation was conducted with 4% PFA for 1 hour.
This was washed with a TBS, Hoechst (diluted with a TBS to an extent of 2000-fold) was added thereto and nuclear staining was conducted. This was washed and mounted.
Taking the photographic pictures and counting the positive cells were conducted as follows. An all-in-one microscope (manufactured by Keyence) was used, exposing time for pMAPK (green) was made 1/2.8 s, the place was appropriately decided in a Hoechst-stained image and the pictures were taken. Four pictures per one glass sheet were taken.
Photoshop (Adobe) was used and the cells having above a certain luminance were judged to be positive. All cells were labeled using Hoechst 33342 manufactured by Invitrogen and the rate of pMAPK-positive cells in Hoechst-positive cells was calculated. (cf. Table 7)

[1] = test system: paclitaxel-induced peripheral nerve disorder rats; experiment: von Frey test in paclitaxel-induced peripheral nerve disorder rats; type: in vivo; settings: Rattus norvegicus, ip; single intraperitoneal dose of 300 μ/kg; higher of the thresholds after 1 hour and 5 hours; normal threshold 15; read-out: Recovery rate of 50% reaction threshold value (%)
Experimental: The effect of the compound of the present invention was tested for a peripheral nerve disorder which is a side effect induced by the administration of paclitaxel (an anti-cancer agent) such as hyperesthesia including allodynia (severe pain induced by such tactile stimuli which usually cause no pain). The compound of the present invention was intraperitoneally administered to rats as a test drug to conduct a von Frey test.
Male SD rats of six weeks age (one group comprising six rats) were used as experimental animals and paclitaxel (2 mg/kg) was intraperitoneally administered every other day for four times in total to prepare paclitaxel-induced peripheral nerve disorder rats. During 18 and 25 days or during 20 to 27 days after initiation of paclitaxel administration, the test drug was intraperitoneally administered in a single dose of […] and the following von Frey test was conducted.
The rats of the above (1) were placed in a transparent acrylic cage with a wire-meshed floor and habituated for about three minutes and the 50% reaction threshold values to the mechanical stimulus of right hind limb were measured before administration of the test drug and after 1, 5 and 24 hours from initiation of the administration.
The measurement was conducted using von Frey filaments (manufactured by North Coast Medical Inc.) in accordance with the methods of Chaplan, et al. (Journal of Neuroscience Methods, vol. 53, no. 1, pages 55 to 63, 1994) and Dixon, et al. (Annual Review of Pharmacology and Toxicology, vol. 20, pages 441 to 462, 1980). […] The case where the rat escaped at the instance of removing the filament was also called positive. When the positive reaction was noted, stimulus was conducted similarly using a filament of one rank weaker while, when no reaction was noted, stimulus was conducted similarly using a filament of one rank stronger and the point when the reaction changed from negative to positive or from positive to negative was called the first two reactions. After that, stimulus was conducted for continuous four times by the same up-down method. A 50% reaction threshold value to the mechanical stimulus was measured using the reaction to the six stimuli in total and then (mean value)±(standard error) for each group was calculated. Incidentally, when stimulus reached by that of 15.0 g without positive reaction or, when positive reaction continued to 0.4 g, then 15.0 g or 0.25 g was adopted as each threshold value, respectively. With regard to the higher 50% reaction threshold value between the 50% threshold values after 1 hour and 5 hours from administration of a test drug, a recovery rate (%) of the 50% reaction threshold value was calculated by the following expression in which 15 was adopted as the normal threshold value. Recovery rate (%) of 50% reaction threshold value=[(50% reaction threshold value after 1 hour or 5 hours from administration of test drug)−(50% reaction threshold value before administration of test drug)]/[(Normal threshold value)−(50% reaction threshold value before administration of test drug)]

SMILES | Rate of pMAPK-positive cells (%) (PC12 cells; 62.5 μg/mL) | Rate of pMAPK-positive cells (%) (PC12 cells; 125 μg/mL) | Rate of pMAPK-positive cells (%) (PC12 cells; 250 μg/mL) | inhibition in vivo at 0.3 mg/kg [1] [%] | Rate of pMAPK-positive cells (%) (PC12 cells; 500 μg/mL)
CCCCCCC/C=C/C(=O)N(CCN(C)C)CCN(C)C [Compound 45, (E)-N,N-bis(2-(dimethylamino)ethyl) dec-2-enamide] | 34 | 67 | 50 | 37 | 
CCCCCCC/C=C/C(=O)N(C)CCN(C)C [Compound 42, (E)-N-(2-(dimethylamino)ethyl)-N-methyl dec-2-enamide] | 6 | 7 | 27 | 48.7 | 
CCCCCCC/C=C/C(=O)OCCCN(C)C [Compound 2, (E)-3-(dimethylamino)propyl dec-2-enoate] | 0 | 19 | 71 | 58.1 | 53
CCCCCCC/C=C/C(=O)N(CC)CC [Compound 31, (E)-N,N-diethyl dec-2-enamide] | 79 | 95 | 98 | 43.1 | 96
CCCCCCC/C=C/C(=O)N(CCCN(C)C)CCCN(C)C [Compound 47, (E)-N,N-bis(3-(dimethylamino)propyl) dec-2-enamide] | 17 | 33 | 23 | 37.4 | 
CCCCCCC/C=C/C(=O)N(CC)CCN(CC)CC [Compound 44, (E)-N-(2-(diethylamino)ethyl)-N-ethyl dec-2-enamide] | 17 | 7 | 18 | 62.6 | 
CCCCCCC/C=C/C(=O)SCCCCC [Compound 48, (E)-S-pentyl dec-2-enethioate] |  |  |  | 50.7 | 
CCCCCCC/C=C/C(=O)N(CC)CCN(C)C [Compound 43, (E)-N-(2-(dimethylamino)ethyl)-N-ethyl dec-2-enamide] | 20 | 26 | 49 | 40.3 | 
CCCCCCC/C=C/C(=O)NC(C)(C)CC(C)(C)C [Compound 26, (E)-N-(2,4,4-trimethylpentan-2-yl) dec-2-enamide] |  |  |  | 55.7 | 
CCCCCCC/C=C/C(=O)SCCCCCC [Compound 50, (E)-S-hexyl dec-2-enethioate] |  |  |  | 51.7 | 
CCCCCCC/C=C/C(=O)NC1CCCCC1 [Compound 27, (E)-N-cyclohexyl dec-2-enamide] |  |  |  | 46.4 | 
CCCCCCC/C=C/C(=O)SCCCCCCC [Compound 51, (E)-S-heptyl dec-2-enethioate] |  |  |  | 45.7 | 
CCCCCCC/C=C/C(=O)NCCc1ccccc1 [Compound 29, (E)-N-phenethyl dec-2-enamide] |  |  |  | 46.3 | 
CCCCCCC/C=C/C(=O)N(CCCC)CCCC [Compound 32, (E)-N,N-dibutyl dec-2-enamide] |  |  |  | 70.6 | 
CCCCCCC/C=C/C(=O)OCCSC(C)C [Compound 8, (E)-2-(isopropylthio)ethyl dec-2-enoate] |  |  |  | 32.2 | 
CCCCCCC/C=C/C(=O)OCCOCC [Compound 10, (E)-2-ethoxyethyl dec-2-enoate] |  |  |  | 26.4 | 
CCCCCCC/C=C/C(=O)NC(CC)CCCCC (stereo not shown) [Compound 25, (E)-N-(octan-3-yl) dec-2-enamide] |  |  |  | 33.7 | 
CCCCCCC/C=C/C(=O)N(CCN(CC)CC)CCN(CC)CC [Compound 46, (E)-N,N-bis(2-(diethylamino)ethyl) dec-2-enamide] | 22 | 13 | 32 | 19.9 | 
CCCCCCC/C=C/C(=O)NCC(C)C [Compound 18, (E)-N-isobutyl dec-2-enamide] |  |  |  | 54.6 | 
CCCCCCC/C=C/C(=O)N(CCCCC)CCCCC [Compound 33, (E)-N,N-dipentyl dec-2-enamide] |  |  |  | 45.3 | 
